{
  "source": "patent EP4732851A9",
  "about": "“LINKER, ANTIBODY-DRUG CONJUGATE, AND PREPARATION METHOD THEREFOR” (Fudan University, priority 2024, dated 2025)",
  "origin": "cited, not measured here",
  "settings": "background statement; cited from earlier work",
  "data": [
    {"substance": "PNU-159682", "values": [
      {"measurement": "activity compared to MMDX and doxorubicin", "value": 3000, "unit": "fold"}
    ]}
  ]
}
